Data reported in PMC6258903 (Nature, 2014).

How the values were obtained:
B16F10 melanoma = test: B16F10 metastatic melanoma model, low dose warfarin in drinking water; format: in vivo, mice; conditions: for melanoma metastases to the lungs and distal organs: low dose warfarin 0.5mg/l in drinking water
RMA-S cells = test: In vivo NK cell cytotoxicity towards RMA-S cells; conditions: Cbl-b+/+ mice treated for 7 days before inoculation
RMA-Rae1 cells = test: In vivo NK cell cytotoxicity towards RMA-Rae1 cells; conditions: warfarin, Cbl-b+/+ mice treated for 7 days before inoculation
[1] = Prothrombine time and bleeding in warfarin-treated mice
Axl = biological target: T1, Axl (Homo sapiens, UniProt P30530); test: Tracer-based kinase binding assay
T1 sequence (P30530 26-894): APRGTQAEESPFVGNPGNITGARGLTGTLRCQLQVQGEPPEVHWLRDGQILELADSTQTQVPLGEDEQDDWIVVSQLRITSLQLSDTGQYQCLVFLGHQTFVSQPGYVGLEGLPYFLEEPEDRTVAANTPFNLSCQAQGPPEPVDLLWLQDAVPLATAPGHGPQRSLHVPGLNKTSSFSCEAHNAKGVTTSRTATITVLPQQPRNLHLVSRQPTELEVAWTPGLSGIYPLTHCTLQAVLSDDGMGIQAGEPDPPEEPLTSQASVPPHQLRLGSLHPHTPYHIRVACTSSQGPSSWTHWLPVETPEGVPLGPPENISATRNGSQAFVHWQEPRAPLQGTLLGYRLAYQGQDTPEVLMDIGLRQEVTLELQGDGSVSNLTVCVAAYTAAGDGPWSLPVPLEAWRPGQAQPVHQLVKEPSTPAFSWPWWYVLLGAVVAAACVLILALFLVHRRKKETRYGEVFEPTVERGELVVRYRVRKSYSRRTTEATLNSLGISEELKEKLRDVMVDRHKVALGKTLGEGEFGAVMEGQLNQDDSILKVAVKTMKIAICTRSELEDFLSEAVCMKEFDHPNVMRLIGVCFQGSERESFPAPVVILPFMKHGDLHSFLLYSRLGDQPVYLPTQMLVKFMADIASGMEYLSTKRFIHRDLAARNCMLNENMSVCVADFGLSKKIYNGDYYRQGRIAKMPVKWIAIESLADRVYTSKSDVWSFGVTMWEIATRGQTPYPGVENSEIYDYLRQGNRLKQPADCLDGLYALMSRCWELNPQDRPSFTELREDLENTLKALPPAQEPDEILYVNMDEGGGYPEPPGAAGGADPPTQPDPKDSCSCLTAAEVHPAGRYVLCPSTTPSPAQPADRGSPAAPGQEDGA

[2] = tested on: 95 different cancer cell lines; test: Proliferation assay on a panel of cancer cell lines; format: cell-based

CC(=O)CC(c1ccccc1)c1c(O)c2ccccc2oc1=O (stereo not drawn) [warfarin]
melanoma metastases to the lungs and distal organs (B16F10 melanoma; Cbl-b defective mice): had no apparent effect | melanoma metastases to the lungs and distal organs (B16F10 melanoma; Cbl-b+/+ and Cbl-b+/- mice, day +16): markedly reduced melanoma metastases | metastatic melanomas (B16F10 melanoma; low dose warfarin, absence of NK1.1+ cells): abolished the effects of warfarin | in vivo NK cell cytotoxicity towards RMA-S (RMA-S cells): enhanced in vivo NK cell cytotoxicity | in vivo NK cell cytotoxicity towards RMA-Rae1 (RMA-Rae1 cells): enhanced in vivo NK cell cytotoxicity | prothrombine time / coagulopathy ([1]; 0.5mg/l in drinking water for 21 days): does not cause a coagulopathy | bleeding ([1]; warfarin-treated mice compared to vehicle controls): never observed neither spontaneous nor excessive bleeding

CCN(CC)CCNC(=O)c1c(C)[nH]c(/C=C2\C(=O)Nc3ccc(F)cc32)c1C [sunitinib]
inhibitory activity of reference compounds in the Axl HTRF assay (Axl): showed inhibitory activities as expected

CN[C@@H]1C[C@H]2O[C@@](C)([C@@H]1OC)n1c3ccccc3c3c4c(c5c6ccccc6n2c5c31)C(=O)NC4 [staurosporine]
inhibitory activity of reference compounds in the Axl HTRF assay (Axl): showed inhibitory activities as expected

Cc1nc(Nc2ncc(C(=O)Nc3c(C)cccc3Cl)s2)cc(N2CCN(CCO)CC2)n1 [dasatinib]
IC50 ([2]; read-out: IC50 proliferation, non-specific kinase inhibitors): < 100 nM

Cc1ccc(NC(=O)c2ccc(CN3CCN(C)CC3)cc2)cc1Nc1nccc(-c2cccnc2)n1 [imatinib]
proliferation inhibition profile, specific kinase blockers ([2]; same panel, e.g. K562 cells): inhibit proliferation of only a few cell lines

CCOc1ccn(-c2ccc(F)cc2)c(=O)c1C(=O)Nc1ccc(Oc2ccnc(N)c2Cl)c(F)c1 [BMS-777607/ASLAN002]
inhibitory activity of reference compounds in the Axl HTRF assay (Axl): showed inhibitory activities as expected
